Measured values from patent publication US20160158317A1, “Antimicrobial Peptide Variants and Polynucleotides Encoding Same” (Adenium Biotech A/S, priority 2010, published 2016).
Where a SMILES comes first, the peptide text is derived from it. Bridges are numbered along the chain shown (N, C = ends).

Tests used:
E. coli ATCC 10536 = assay: Plate assay screening of variants expressed in S. cerevisiae, overlaid with target organism in presence of horse blood or serum; type: cell-based, Escherichia coli; details: 2.5% blood, 5% blood or 5% serum
From the text: Several strategies were used for variant generation of the polynucleotide of SEQ ID NO:1. The resulting libraries were cloned and expressed in S. cerevisiae. Transformed clones were screened on a plate assay containing growth media supplemented with 1.5% galactose and 0.5% glucose and either horse blood (2.5-5%) or serum (5%), overlayed with the target organism, E. coli ATCC 10536 (See Raventos et al., 2005, Comb Chem High Throughput Screen. 8:219-33).
Approximately, 300 Saccharomyces cerevisiae colonies expressing arenicin variants were spread on screening plates containing either horse blood (2.5% or 5%) or 5% horse serum (see composition of the plates below). Plates were incubated 3 hours at 30° C. to allow them to dry. Next, 25 ml overlay temperate at 42° C. was added to the plates. After the media had solidified, the plates were incubated 3 days at 30° C.
On day 4, plates were overlayed with pre-warmed media at 42° C. containing either 2.5% or 5% horse blood or 5% horse serum and the target bacteria, E. coli ATCC 10536 (see below for details on media composition). After the overlay solidified, plates were incubated 16 hours at 37° C. Next day, plates were colored by adding 10 ml of 1.5 mM MTT to the plates and incubated at room temperature for 30 minutes. Clones giving rise to clearing zones were picked and sequenced. […]

[1] = Determination of the protein binding (90% serum, 30 kDa filter, HPLC); type: in vitro ADME; details: purified peptide mixed with 90% serum, 30 kDa filter, HPLC; read-out: Protein binding (%) (converted)
Procedure: Protein binding assays were performed as follows. The purified peptides were mixed with 90% serum and centrifuged through a 30 kDa filter. The ultra-filtrate and the non filtrated serum samples were quantified by HPLC measurements and the protein binding was subsequently calculated.

CC(C)[C@@H]1NC(=O)CNC(=O)[C@H](CC(N)=O)NC(=O)[C@H](CCCNC(=N)N)NC(=O)[C@H](Cc2ccc(O)cc2)NC(=O)[C@H](C(C)C)NC(=O)[C@@H]2CSSC[C@H](NC(=O)[C@H](C(C)C)NC(=O)[C@H](CCCNC(=N)N)NC1=O)C(=O)N[C@@H](Cc1ccc(O)cc1)C(=O)N[C@@H](CCCNC(=N)N)C(=O)N[C@@H](CCCNC(=N)N)C(=O)N[C@H](C(=O)N[C@@H](CC(N)=O)C(=O)O)CSSC[C@H](NC(=O)[C@H](Cc1ccccc1)NC(=O)CN)C(=O)N[C@@H](Cc1c[nH]c3ccccc13)C(=O)N[C@@H](Cc1ccc(O)cc1)C(=O)N[C@@H](C(C)C)C(=O)N2 [SEQ ID NO: 2, reference compound] (H-GFCWYVCVYRNGVRVCYRRCN-OH; disulfide 3-20, 7-16)
antimicrobial activity in plate assay (clearing zones) (E. coli ATCC 10536): fully inhibited | fraction unbound [1]: 0.005
